What follows are compounds tested against unphosphorylated-BTK kinase domain (UP-BTK), GST-tagged human BTK (389-659aa) (Homo sapiens (Human), UniProt Q06187) (assay: BTK Kinase Lanthascreen Binding Assay). Conditions: Lanthascreen binding, 60 minutes incubation; pIC50 = negative log of the IC50 in molar.
Procedure: BTK Kinase Lanthascreen Binding Assay:
A BTK kinase lanthascreen binding assay monitors compound binding to unphosphorylated-BTK kinase domain (UP-BTK), by competing with a fluorescent labeled tracer. […] Data were analyzed using Xlfit™ version 5.3 from ID Business Solutions (Guildford), Microsoft Excel add-in. pIC50 refers to the negative log of the IC50 in molar.

Sequence of unphosphorylated-BTK kinase domain (UP-BTK), GST-tagged human BTK (389-659aa) (Q06187 389-659): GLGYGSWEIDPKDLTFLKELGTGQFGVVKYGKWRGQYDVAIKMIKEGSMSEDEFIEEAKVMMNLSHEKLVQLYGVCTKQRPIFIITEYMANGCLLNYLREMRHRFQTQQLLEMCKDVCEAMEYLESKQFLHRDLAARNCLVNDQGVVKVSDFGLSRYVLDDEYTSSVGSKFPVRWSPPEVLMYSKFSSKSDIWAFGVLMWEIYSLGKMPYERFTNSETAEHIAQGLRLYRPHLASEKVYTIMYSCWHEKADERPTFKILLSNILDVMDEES

Compound	BTK_I_binding pIC50
C=CC(=O)N[C@@H]1CCC[C@@H](NC(=O)c2sc3nccc4c3c2NC(=O)N4c2ccc(Oc3ccccc3)cn2)C1 (relative stereo) [Example 344, N-((1*R,3*R)-3-Acrylamidocyclohexyl)-4-oxo-5-(5-phenoxypyridin-2-yl)-4,5-dihydro-3H-1-thia-3,5,8-triazaacenaphthylene-2-carboxamide]	6.11
CCC(=O)N[C@H]1CCCC[C@H]1NC(=O)c1sc2nccc3c2c1NC(=O)N3c1cnc(Oc2ccccc2)cc1C (relative stereo) [Example 381, 5-(*S)-(4-Methyl-6-phenoxypyridin-3-yl)-4-oxo-N-((1R,2S)-2-propionamidocyclohexyl)-4,5-dihydro-3H-1-thia-3,5,8-triazaacenaphthylene-2-carboxamide]	6.75

Same assay, conditions: compound, 50 nM Tracer 236, 2 nM anti-GST antibody, 60 minutes; pIC50 = negative log of the IC50 in molar

Compound	BTK_I_binding pIC50
CNC1CC[C@H](NC(=O)c2sc3nccc4c3c2NC(=O)N4c2ccc(Oc3ccccc3)cc2C)C1 (mixture of isomers) [Example 80, 5-(2-Methyl-4-phenoxyphenyl)-N-((1S)-3-(methylamino)cyclopentyl)-4-oxo-4,5-dihydro-3H-1-thia-3,5,8-triazaacenaphthylene-2-carboxamide]	6.42
Cc1cc(Oc2ccccc2)ccc1N1C(=O)Nc2c(C(=O)N[C@@H]3CCCC[C@@H]3N(C)C)sc3nccc1c23 (relative stereo) [Example 7, N-((1R,2S)-2-(Dimethylamino)cyclohexyl)-5-(*S)-(2-methyl-4-phenoxyphenyl)-4-oxo-4,5-dihydro-3H-1-thia-3,5,8-triazaacenaphthylene-2-carboxamide]	7.31
CC(=O)N[C@@H]1CC[C@H](NC(=O)c2sc3nccc4c3c2NC(=O)N4c2ccc(Oc3ccccc3)cc2C)C1 (relative stereo) [Example 88, N-((1S,3R)-3-Acetamidocyclopentyl)-5-(*S)-(2-methyl-4-phenoxyphenyl)-4-oxo-4,5-dihydro-3H-1-thia-3,5,8-triazaacenaphthylene-2-carboxamide]	7.89
CNCC(=O)N[C@H]1CCC[C@H](NC(=O)c2sc3nccc4c3c2NC(=O)N4c2ccc(Oc3ccccc3)cc2C)C1 (relative stereo) [Example 250, 5-(*S)-(2-Methyl-4-phenoxyphenyl)-N-((1R,3S)-3-(2-(methylamino)acetamido)cyclohexyl)-4-oxo-4,5-dihydro-3H-1-thia-3,5,8-triazaacenaphthylene-2-carboxamide]	6.75
C=CC(=O)N[C@H]1CC[C@@H](NC(=O)c2sc3nccc4c3c2NC(=O)N4c2ccc(Oc3ccccc3)cc2C)CC1 (single isomer, unassigned) [Example 1, N-((1S,4S)-4-Acrylamidocyclohexyl)-5-(*S)-(2-methyl-4-phenoxyphenyl)-4-oxo-4,5-dihydro-3H-1-thia-3,5,8-triazaacenaphthylene-2-carboxamide]	7.61
Cc1cc(Oc2ccccc2)ccc1N1C(=O)Nc2c(C(=O)N[C@@H]3CCCC[C@@H]3N)sc3nccc1c23 (single isomer, unassigned) [Example 5, N-((1R,2S)-2-Aminocyclohexyl)-5-(*S)-(2-methyl-4-phenoxyphenyl)-4-oxo-4,5-dihydro-3H-1-thia-3,5,8-triazaacenaphthylene-2-carboxamide]	7.69
Cc1cc(Oc2ccccc2)ccc1N1C(=O)Nc2c(C(=O)N[C@@H]3CCC[C@@H]3O)sc3nccc1c23 (single isomer, unassigned) [Example 8, N-((1R,2S)-2-Hydroxycyclopentyl)-5-(*S)-(2-methyl-4-phenoxyphenyl)-4-oxo-4,5-dihydro-3H-1-thia-3,5,8-triazaacenaphthylene-2-carboxamide]	7.95

Same assay, conditions: read-out: BTK_I_binding pIC50 (converted)

Compound	IC50 [nM]
Cc1cc(Oc2ccccc2)ccc1N1C(=O)Nc2c(C(=O)NC3CCCCC3O)sc3nccc1c23 (racemic) [Example 27, N-((1RS,2RS)-2-Hydroxycyclohexyl)-5-(2-methyl-4-phenoxyphenyl)-4-oxo-4,5-dihydro-3H-1-thia-3,5,8-triazaacenaphthylene-2-carboxamide]	110
Cc1cc(Oc2ccccc2)ccc1N1C(=O)Nc2c(C(=O)N[C@H]3CCCC[C@@H]3O)sc3nccc1c23 (racemic) [Example 36, N-((1RS,2RS)-2-Hydroxycyclohexyl)-5-(2-methyl-4-phenoxyphenyl)-4-oxo-4,5-dihydro-3H-1-thia-3,5,8-triazaacenaphthylene-2-carboxamide]	191
N[C@H]1CC[C@@H](NC(=O)c2sc3nccc4c3c2NC(=O)N4c2ccc(Oc3ccccc3)cc2)C1 (racemic) [Example 96, N-(rac-(1,3-cis)-3-Aminocyclopentyl)-4-oxo-5-(4-phenoxyphenyl)-4,5-dihydro-3H-1-thia-3,5,8-triazaacenaphthylene-2-carboxamide]	77.6
C=CC(=O)NC1CCC(NC(=O)c2sc3nccc4c3c2NC(=O)N4c2ccc(Oc3ccccc3)cc2)C1 (racemic) [Example 109, N-((1RS,3RS)-3-Acrylamidocyclopentyl)-4-oxo-5-(4-phenoxyphenyl)-4,5-dihydro-3H-1-thia-3,5,8-triazaacenaphthylene-2-carboxamide]	14.1
N[C@@H]1CC[C@@H](NC(=O)c2sc3nccc4c3c2NC(=O)N4c2ccc(Oc3ccccc3)cc2)C1 (racemic) [Example 147, trans-N-((1RS,3RS)-3-Aminocyclopentyl)-4-oxo-5-(4-phenoxyphenyl)-4,5-dihydro-3H-1-thia-3,5,8-triazaacenaphthylene-2-carboxamide]	234
C=CC(=O)N[C@@H]1CC[C@@H](NC(=O)c2sc3nccc4c3c2NC(=O)N4c2ccc(Oc3ccccc3)nc2)C1 (racemic) [Example 188, N-((1RS,3RS)-3-Acrylamidocyclopentyl)-4-oxo-5-(6-phenoxypyridin-3-yl)-4,5-dihydro-3H-1-thia-3,5,8-triazaacenaphthylene-2-carboxamide]	77.6
C=CC(=O)NC1CCC(NC(=O)c2sc3nccc4c3c2NC(=O)N4c2ccc(Oc3ccccc3)cn2)C1 (racemic) [Example 214, N-((1RS,3RS)-3-Acrylamidocyclopentyl)-4-oxo-5-(5-phenoxypyridin-2-yl)-4,5-dihydro-3H-1-thia-3,5,8-triazaacenaphthylene-2-carboxamide]	14.1
C=CC(=O)N[C@@H]1CCC[C@@H](NC(=O)c2sc3nccc4c3c2NC(=O)N4c2ccc(Oc3ccccc3)cn2)C1 (racemic) [Example 216, N-((1RS,3RS)-3-Acrylamidocyclohexyl)-4-oxo-5-(5-phenoxypyridin-2-yl)-4,5-dihydro-3H-1-thia-3,5,8-triazaacenaphthylene-2-carboxamide]	36.3
N[C@@H]1CC[C@H](NC(=O)c2sc3nccc4c3c2NC(=O)N4c2ccc(Oc3ccccc3)nc2)C1 (racemic) [Example 289, racemic cis N-((1RS,3RS)-3-Aminocyclopentyl)-4-oxo-5-(6-phenoxypyridin-3-yl)-4,5-dihydro-3H-1-thia-3,5,8-triazaacenaphthylene-2-carboxamide]	1700
N[C@H]1CC[C@H](NC(=O)c2sc3nccc4c3c2NC(=O)N4c2ccc(Oc3ccccc3)nc2)C1 (racemic) [Example 290, racemic trans N-((1RS,3RS)-3-Aminocyclopentyl)-4-oxo-5-(6-phenoxypyridin-3-yl)-4,5-dihydro-3H-1-thia-3,5,8-triazaacenaphthylene-2-carboxamide]	2240

Reference: patent US10934310B2, “Inhibitors of Bruton's tyrosine kinase and method of their use” (JANSSEN PHARMACEUTICA NV, priority 2015, dated 2021)
